According to patent US20230414629A1, “MATERIALS AND METHODS OF TREATING CANCER” (MONOPTEROS THERAPEUTICS, INC., priority 2020, published 2023):
Entries after “also recorded” stand apart in the source; their conditions may differ.

Experiments:
[1] = system: circulating regulatory T cells (Tregs); assay: Circulating Tregs in rats under continuous oral dosing (flow cytometry); assay type: in vivo; details: 15 and 30 mg/kg oral, days 0 through 14
From the text: Animals: Harlan Sprague Dawley rats (Hsd:SD) rats were procured through Envigo (Indianapolis, IN). Rats were individually housed in an Optirat carousel with a filtered air supply (Animal Care Systems, Inc. [Centennial, CO]). Rats were fed Teklad rodent diet (Cat. #2020X) and bedded with Teklad ⅛th inch corncob bedding.
Blood sampling: After a 72-hour acclimation period, Rats were randomized into (3) groups of 5 rats each (Day −1). Blood samples were taken on days: −1, 3, 5, 7, 10, and 14. Blood sampling was conducted by inserting a 22 g PinPort injector (Cat. #PNP3M) on the pinport and drawing 200 μL of catheter Loc solution using a 1 mL syringe. The syringe was discarded and a new 1 mL syringe was used to draw approximately 300 μL of whole blood. Whole blood was expelled into 1.7 mL K2EDTA coated tubes and inverted 3× and put at 4 C until processing for flow cytometry. A syringe with Catheter Loc solution (Heparin/Glycerol Loc solution, Cat. #HGS-5 [Braintree Scientific]) was placed on a new PinPort injector and 200 μL of catheter loc solution was added. […]
Flow cytometry: Following red blood cell lysis (BD Pharm Lyse, Cat. #555899, Lot #9311388), rat blood samples were stained with near-IR fixable viability dye (1:3000 dilution, Invitrogen, Cat. #L34960 H, Lot #2159963) for 30 minutes at room temperature. […] Data was analyzed with FlowJo (BD, v10.6.2).

[2] = system: patient-derived tumor spheroids; assay: Anti-tumor effect in patient-derived tumor spheroids; assay type: cell-based
[3] = Serum IgE and IgG in dogs dosed daily for 28 days; assay type: in vivo; details: 10-30 mg/kg daily for 28 days
Experimental: Whole venous blood samples of approximately 1 mL were collected from a peripheral vein of all animals on day 0 and on day 28 of the treatment period for determination of IgG and IgE concentrations. Test samples were diluted and incubated in the microtiter wells for 45 minutes alongside dog IgG or IgE standards. The microtiter wells were subsequently washed and HRP conjugate is added and incubated for 45 minutes. IgG or IgE molecules are thus sandwiched between the immobilization and detection antibodies. The wells were then washed to remove unbound HRP-labeled antibodies and TMB reagent was added and incubated for 20 minutes at room temperature. […] Color development is stopped by the addition of Stop Solution, changing the color to yellow, and optical density is measured spectrophotometrically at 450 nm. The concentration of IgG or IgE is proportional to the optical density of the test sample and is derived from a standard curve.

[4] = pKa; assay type: physicochemical
[5] = Plasma pharmacokinetics in C57/BL6 mice; assay type: in vivo
Experimental: (§1) A high volume of distribution (Vss 22.6 l/kg) was observed. […] The tumor concentrations in this experiment were above 3 μM for a 24-hour period, which is a required dose for an anti-tumor effect in patient-derived tumor spheroids as shown in FIG. 9. […] MPT-0118 is quickly distributed from the plasma to the tissue compartment, which reduces the risk for depletion of circulating Tregs. The high volume of distribution and accumulation of MPT-0118 in tumor tissue broadens the therapeutic window for cancer therapy.

[6] = system: D4M.3A tumor; assay: D4M.3A syngeneic tumors in C57BL/6J mice, I.P. monotherapy and combination with anti-PD-1; assay type: in vivo
Experimental: One million cells of D4M.3A tumor were injected subcutaneously into the right hind flank of C57BL/6J mice.
Anti-PD-1 Antibody dosing was 10 μL/g animal weight for 3 doses on first, third and fifth treatment day.
Measurement of tumor volume (L×W2)/2 was done by caliper. Longest tumor diameter becomes length. Width is perpendicular to length. Volume=(width2×length)/2.

[7] = Tumor pharmacokinetics in D4M.3A tumor-bearing C57/BL6 mice; assay type: in vivo; details: 64 mg/kg PO once per day, after 20 days of dosing, for a 24-hour period
Experimental: as §1

[8] = system: D4M.3A tumor; assay: Tumor growth in D4M.3A tumor-bearing C57/BL6 mice, oral dosing; assay type: in vivo; details: 64 mg/kg orally once per day for 20 days
From the text: A high volume of distribution (Vss 22.6 l/kg) was observed. […] MPT-0118 is quickly distributed from the plasma to the tissue compartment, which reduces the risk for depletion of circulating Tregs. The high volume of distribution and accumulation of MPT-0118 in tumor tissue broadens the therapeutic window for cancer therapy.

[9] = in vivo; cited from earlier work

Q: Which results are given for CN1CCC[C@H](CN2c3ccccc3Sc3ccccc32)C1 [(S)-mepazine]?
A: average percent of circulating regulatory T cells (Tregs) [1]: no effect; also recorded: did not deplete; required dose for an anti-tumor effect in patient-derived tumor spheroids [2]: 3 µM; serum levels of IgE [3]: not negatively impact; also recorded: did not increase; also recorded: did not decrease; serum levels of IgG [3]: not negatively impact; also recorded: did not increase; also recorded: did not decrease; pKa [4]: 9.2; Vd ([5]; C57/BL6, mouse, single dose 16 mg/kg IV, plasma over 8 hours, read-out: volume of distribution (Vss)): 22.6 L/kg; bioavailability ([5]; mouse, in vivo, po): 25 to 35%; tumor volume ([6]; combination therapy: 32 mg/kg I.P. once per day with anti-PD-1 antibody): significant reduction in tumor volume; also recorded: reduced tumor volume; tumor volume ([6]; monotherapy, 32 mg/kg I.P. once per day, from day 9): reduced tumor volume; tumor concentrations [7]: above 3 μM; tumor growth inhibition [8]: significant tumor growth inhibition

Q: For CO[C@@H](C)c1c(NC(=O)Nc2cnc(-n3nccn3)c(C(F)(F)F)c2)cnc(N)c1Br [Compound-139], which pKa [4] is on record?
A: 6.5

Q: With CO[C@@H](C)c1c(NC(=O)Nc2ccnc(C(F)(F)F)c2)cnc2cc(Cl)nn12 [MLT-943] as the molecule, how does the “serum IgE” value [9] read?
A: increased

Q: For CO[C@@H](C)c1c(NC(=O)Nc2cnc(-n3nccn3)c(Cl)c2)cnc2cc(Cl)nn12 [Example-10], which pKa [4] is on record?
A: < 5
